From patent US20250064941A1, “SIGLEC LIGANDS, CONJUGATES, AND METHODS OF USE THEREOF” (Osprey Biopharmaceuticals, Inc., priority 2023, published 2025)

Assays:
cynomolgus Siglec-2/CD22 = cynomolgus Siglec-2/CD22 (Macaca fascicularis, UniProt A0A2K5WCZ6); test: biochemical; assay type: binding; conditions: SPR, steady-state analysis; read-out: Affinity cyno CD22
How it was run: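 Compound binding measured by steady-state SPR analysis, 120 s dissociation, in HEPES-NaCl-Tween buffer pH 7.5 containing 1% DMSO, DMSO solvent-corrected. Surface: cyno CD22, sialic acids first stripped by SialoExo for 4 h at 37° C., then amine-coupled onto CM5.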

[1] = target: T1, human Siglec-2/CD22 protein (Homo sapiens, UniProt P20273); test: SPR binding affinity to human CD22; conditions: steady-state analysis
T1 construct: purchased Acro Biosystems SI2-H82E3
T1 sequence (P20273 20-847): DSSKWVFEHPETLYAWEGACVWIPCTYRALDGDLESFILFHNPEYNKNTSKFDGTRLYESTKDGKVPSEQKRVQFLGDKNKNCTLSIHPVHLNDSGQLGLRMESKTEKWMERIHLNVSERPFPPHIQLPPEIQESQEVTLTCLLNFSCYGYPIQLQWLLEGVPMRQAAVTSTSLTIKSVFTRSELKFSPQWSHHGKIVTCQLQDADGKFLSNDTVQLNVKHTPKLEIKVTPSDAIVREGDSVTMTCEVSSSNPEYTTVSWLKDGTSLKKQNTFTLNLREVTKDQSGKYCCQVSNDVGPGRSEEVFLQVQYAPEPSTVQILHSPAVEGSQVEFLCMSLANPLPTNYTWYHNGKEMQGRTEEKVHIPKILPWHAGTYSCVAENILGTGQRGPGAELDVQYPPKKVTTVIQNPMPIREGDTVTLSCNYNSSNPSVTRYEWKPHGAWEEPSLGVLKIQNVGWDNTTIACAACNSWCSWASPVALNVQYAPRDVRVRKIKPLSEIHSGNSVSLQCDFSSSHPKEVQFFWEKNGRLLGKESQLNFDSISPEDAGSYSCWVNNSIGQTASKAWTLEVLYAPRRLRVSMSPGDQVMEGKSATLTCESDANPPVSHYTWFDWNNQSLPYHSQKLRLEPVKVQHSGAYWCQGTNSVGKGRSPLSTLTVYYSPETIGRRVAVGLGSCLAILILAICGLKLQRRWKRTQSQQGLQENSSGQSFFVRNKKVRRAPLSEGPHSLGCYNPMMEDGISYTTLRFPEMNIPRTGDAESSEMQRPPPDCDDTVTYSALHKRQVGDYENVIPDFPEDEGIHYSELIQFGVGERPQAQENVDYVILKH
How it was run: (§1)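 Steady-state fits gave the affinities. Before capture on a streptavidin surface, biotinylated CD22 had native sialic acids stripped (SialoExo, 4 hours, 37° C.). Running buffer: 10 mM HEPES pH 7.5, 150 mM NaCl, 0.05% Tween-20, 1% DMSO, with DMSO solvent correction.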

[2] = target: T2, mouse Siglec-2-Fc-Avi (CD22) (Mus musculus, UniProt P35329); test: SPR binding affinity to mouse CD22; conditions: steady-state analysis
T2 construct: made in house
T2 sequence (P35329 22-708 limits assumed): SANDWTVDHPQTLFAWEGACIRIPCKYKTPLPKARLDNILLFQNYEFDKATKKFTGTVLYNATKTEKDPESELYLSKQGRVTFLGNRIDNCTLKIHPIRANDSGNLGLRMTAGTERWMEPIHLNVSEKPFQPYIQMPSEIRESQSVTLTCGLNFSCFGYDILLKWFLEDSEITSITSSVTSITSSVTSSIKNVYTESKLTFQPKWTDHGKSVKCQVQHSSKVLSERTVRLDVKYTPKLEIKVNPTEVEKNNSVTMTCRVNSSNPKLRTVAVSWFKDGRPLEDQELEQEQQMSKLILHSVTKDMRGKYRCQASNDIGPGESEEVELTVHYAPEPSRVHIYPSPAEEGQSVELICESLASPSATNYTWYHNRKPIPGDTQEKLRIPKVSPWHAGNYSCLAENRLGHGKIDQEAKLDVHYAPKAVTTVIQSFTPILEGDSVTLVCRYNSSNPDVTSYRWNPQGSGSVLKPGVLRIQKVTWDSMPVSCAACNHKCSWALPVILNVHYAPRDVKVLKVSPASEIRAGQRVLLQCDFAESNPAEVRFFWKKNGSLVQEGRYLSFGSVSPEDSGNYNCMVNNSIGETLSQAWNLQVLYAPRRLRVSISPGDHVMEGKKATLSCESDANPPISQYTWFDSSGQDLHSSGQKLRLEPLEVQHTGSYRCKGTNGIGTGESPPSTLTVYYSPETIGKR
How it was run: as §1

cynomolgus Siglec-2/CD22, sequence (A0A2K5WCZ6 entry or part of it): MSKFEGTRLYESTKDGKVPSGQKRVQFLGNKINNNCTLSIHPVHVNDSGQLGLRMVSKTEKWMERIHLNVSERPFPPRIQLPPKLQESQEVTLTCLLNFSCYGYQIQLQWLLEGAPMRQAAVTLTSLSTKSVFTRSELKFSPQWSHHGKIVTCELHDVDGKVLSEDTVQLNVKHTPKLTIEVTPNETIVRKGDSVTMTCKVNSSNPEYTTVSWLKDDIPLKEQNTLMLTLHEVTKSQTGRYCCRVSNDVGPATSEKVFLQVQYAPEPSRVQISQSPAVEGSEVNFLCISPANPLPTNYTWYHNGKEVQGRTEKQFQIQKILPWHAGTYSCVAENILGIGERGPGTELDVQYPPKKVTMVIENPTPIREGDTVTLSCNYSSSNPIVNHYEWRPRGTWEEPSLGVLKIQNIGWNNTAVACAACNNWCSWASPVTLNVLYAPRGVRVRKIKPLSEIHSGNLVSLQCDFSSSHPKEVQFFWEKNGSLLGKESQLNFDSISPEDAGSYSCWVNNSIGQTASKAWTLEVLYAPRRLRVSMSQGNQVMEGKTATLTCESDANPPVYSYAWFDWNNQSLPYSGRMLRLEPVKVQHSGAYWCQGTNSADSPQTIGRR

Row | Structure (SMILES) | Kd (cynomolgus Siglec-2/CD22) [nM] | Kd [1] [nM] | Kd [2] [nM]
1 | C#CCOc1ccc(CO[C@]2(C(=O)O)C[C@H](O)[C@@H](NC(=O)CO)[C@H]([C@H](O)[C@H](O)CNC(=O)Cc3ccc(-c4ccc(O)cc4)cc3Cl)O2)cc1 [Compound 52, (2R,4S,5R,6R)-6-((1R,2R)-3-(2-(3-chloro-4′-hydroxy-[1,1′-biphenyl]-4-yl)acetamido)-1,2-dihydroxypropyl)-4-hydroxy-5-(2-hydroxyacetamido)-2-((4-(prop-2-yn-1-yloxy)benzyl)oxy)tetrahydro-2H-pyran-2-carboxylic acid] | 1000 to 10000 | < 1000 | < 1000
2 | C#CCOCCOCCO[C@]1(C(=O)O)C[C@H](O)[C@@H](NC(=O)CO)[C@H]([C@H](O)[C@H](O)CNC(=O)c2ccc(-c3ccc(O)cc3)cc2)O1 [Compound 19, (2R,4S,5R,6R)-6-((1R,2R)-1,2-dihydroxy-3-(4′-hydroxy-[1,1′-biphenyl]-4-carboxamido)propyl)-4-hydroxy-5-(2-hydroxyacetamido)-2-(2-(2-(prop-2-yn-1-yloxy)ethoxy)ethoxy)tetrahydro-2H-pyran-2-carboxylic acid] | 1000 to 10000 | < 1000 | 1000 to 10000
3 | C#CCOCCOCCO[C@]1(C(=O)O)C[C@H](O)[C@@H](NC(=O)CO)[C@H]([C@@H](F)[C@H](O)CNC(=O)Cc2ccc(-c3ccccc3)cc2)O1 [Compound 32] | > 10000 | > 10000 | > 10000
4 | C#CCCCCCCCCO[C@]1(C(=O)O)C[C@H](O)[C@@H](NC(=O)CO)[C@H]([C@H](O)[C@H](O)CNC(=O)Cc2ccc(Cl)cc2)O1 [Compound 109, (2R,4S,5R,6R)-6-((1R,2R)-3-(2-(4-chlorophenyl)acetamido)-1,2-dihydroxypropyl)-2-(dec-9-yn-1-yloxy)-4-hydroxy-5-(2-hydroxyacetamido)tetrahydro-2H-pyran-2-carboxylic acid] | < 1000 | < 1000 | < 1000
5 | C#CCOCCOCCO[C@]1(C(=O)O)C[C@H](O)[C@@H](NC(=O)CO)[C@H]([C@H](O)[C@H](O)CNC(=O)Cc2ccc(Cl)cc2)O1 [Compound 126, (2R,4S,5R,6R)-6-((1R,2R)-3-(2-(4-chlorophenyl)acetamido)-1,2-dihydroxypropyl)-4-hydroxy-5-(2-hydroxyacetamido)-2-(2-(2-(prop-2-yn-1-yloxy)ethoxy)ethoxy)tetrahydro-2H-pyran-2-carboxylic acid] | 1000 to 10000 | 1000 to 10000 | 1000 to 10000
6 | C#CCOc1ccccc1-c1cn([C@]2(C(=O)O)C[C@H](O)[C@@H](NC(=O)CO)[C@H]([C@H](O)[C@H](O)CNC(=O)Cc3ccc(-c4ccc(O)cc4)cc3)O2)nn1 [Compound 59, (2R,4S,5R,6R)-6-((1R,2R)-1,2-dihydroxy-3-(2-(4′-hydroxy-[1,1′-biphenyl]-4-yl)acetamido)propyl)-4-hydroxy-5-(2-hydroxyacetamido)-2-(4-(2-(prop-2-yn-1-yloxy)phenyl)-1H-1,2,3-triazol-1-yl)tetrahydro-2H-pyran-2-carboxylic acid] | 1000 to 10000 | < 1000 | 1000 to 10000
7 | C#CCOP(=O)(O)OCCCCCCO[C@]1(C(=O)O)C[C@H](O)[C@@H](NC(=O)CO)[C@H]([C@H](O)[C@H](O)CNC(=O)Cc2ccc(Cl)cc2)O1 [Compound 105, (2R,4S,5R,6R)-6-((1R,2R)-3-(2-(4-chlorophenyl)acetamido)-1,2-dihydroxypropyl)-4-hydroxy-2-((6-((hydroxy(prop-2-yn-1-yloxy)phosphoryl)oxy)hexyl)oxy)-5-(2-hydroxyacetamido)tetrahydro-2H-pyran-2-carboxylic acid] | < 1000 | < 1000 | < 1000

Other lines, results leading:

Row | Kd (cynomolgus Siglec-2/CD22) [nM] | Kd [1] [nM] | Kd [2] [nM] | Structure (SMILES)
8 | < 1000 | < 1000 | < 1000 | C#CCOCCCCCCO[C@]1(C(=O)O)C[C@H](O)[C@@H](NC(=O)CO)[C@H]([C@H](O)[C@H](O)CNC(=O)Cc2ccc(C3CC3)cc2)O1 [Compound 161, (2R,4S,5R,6R)-6-((1R,2R)-3-(2-(4-cyclopropylphenyl)acetamido)-1,2-dihydroxypropyl)-4-hydroxy-5-(2-hydroxyacetamido)-2-((6-(prop-2-yn-1-yloxy)hexyl)oxy)tetrahydro-2H-pyran-2-carboxylic acid]
9 | > 10000 | > 10000 | > 10000 | C#CCOCCOCCO[C@]1(C(=O)O)C[C@H](O)[C@@H](NC(=O)CO)[C@H]([C@H](O)[C@H](O)CNC(=O)Cc2ccc(O)c(Cl)c2)O1 [Compound 197, (2R,4S,5R,6R)-6-((1R,2R)-3-(2-(3-chloro-4-hydroxyphenyl)acetamido)-1,2-dihydroxypropyl)-4-hydroxy-5-(2-hydroxyacetamido)-2-(2-(2-(prop-2-yn-1-yloxy)ethoxy)ethoxy)tetrahydro-2H-pyran-2-carboxylic acid]
10 | < 1000 | < 1000 | < 1000 | C#CCOCCCCCCO[C@]1(C(=O)O)C[C@H](O)[C@@H](NC(=O)CO)[C@H]([C@H](O)[C@H](O)CNC(=O)Cc2ccc(C(F)F)cc2)O1 [Compound 157, (2R,4S,5R,6R)-6-((1R,2R)-3-(2-(4-(difluoromethyl)phenyl)acetamido)-1,2-dihydroxypropyl)-4-hydroxy-5-(2-hydroxyacetamido)-2-((6-(prop-2-yn-1-yloxy)hexyl)oxy)tetrahydro-2H-pyran-2-carboxylic acid]
11 | < 1000 | < 1000 | < 1000 | CC(=O)NCCOCCOCCOCCOCc1cn(CCCCCCO[C@]2(C(=O)O)C[C@H](O)[C@@H](NC(=O)CO)[C@H]([C@H](O)[C@H](O)CNC(=O)Cc3ccc(Cl)cc3)O2)nn1 [Cpd. 246, (2R,4S,5R,6R)-6-((1R,2R)-3-(2-(4-chlorophenyl)acetamido)-1,2-dihydroxypropyl)-4-hydroxy-5-(2-hydroxyacetamido)-2-((6-(4-(15-oxo-2,5,8,11-tetraoxa-14-azahexadecyl)-1H-1,2,3-triazol-1-yl)hexyl)oxy) tetrahydro-2H-pyran-2-carboxylic acid]
12 | 1000 to 10000 | 1000 to 10000 | 1000 to 10000 | CC(=O)NCCOCCOCCOCCOCc1cn(CCOCCOCCO[C@]2(C(=O)O)C[C@H](O)[C@@H](NC(=O)CO)[C@H]([C@H](O)[C@H](O)CNC(=O)Cc3ccc(-c4ccccc4)cc3)O2)nn1 [Cpd. 243, (2R,4S,5R,6R)-6-((1R,2R)-3-(2-([1,1′-biphenyl]-4-yl)acetamido)-1,2-dihydroxypropyl)-4-hydroxy-5-(2-hydroxyacetamido)-2-(2-(2-(2-(4-(15-oxo-2,5,8,11-tetraoxa-14-azahexadecyl)-1H-1,2,3-triazol-1-yl)ethoxy)ethoxy)ethoxy) tetrahydro-2H-pyran-2-carboxylic acid]
13 | 1000 to 10000 | 1000 to 10000 | 1000 to 10000 | C#CCCCCCCc1cn([C@]2(C(=O)O)C[C@H](O)[C@@H](NC(=O)CO)[C@H]([C@H](O)[C@H](O)CNC(=O)Cc3cccc(O)c3)O2)nn1 [Compound 147, (2R,4S,5R,6R)-6-((1R,2R)-1,2-dihydroxy-3-(2-(3-hydroxyphenyl)acetamido)propyl)-4-hydroxy-5-(2-hydroxyacetamido)-2-(4-(oct-7-yn-1-yl)-1H-1,2,3-triazol-1-yl)tetrahydro-2H-pyran-2-carboxylic acid]
